Experimental data: US4349625A, “Method for assaying fatty acids” (Mitsubishi Chemical Industries Limited, priority 1979, dated 1982)
Counter-ions that a name gives are not always drawn. Each block holds one compound with its values, some of them ahead of it.

Experiments:
Type in all cases: biochemical
[1] = biological target: T1, FFA-albumin linkage (human serum albumin) (Homo sapiens, UniProt P02768); experiment: Example 1: rate of ACS-coupled NADH reaction (Procedure A) on FFA sample containing albumin, with dissociating agent; conditions: sample 0.5 mM FFA + 2.5% human serum albumin, 37° C.
T1 sequence (P02768 25-609): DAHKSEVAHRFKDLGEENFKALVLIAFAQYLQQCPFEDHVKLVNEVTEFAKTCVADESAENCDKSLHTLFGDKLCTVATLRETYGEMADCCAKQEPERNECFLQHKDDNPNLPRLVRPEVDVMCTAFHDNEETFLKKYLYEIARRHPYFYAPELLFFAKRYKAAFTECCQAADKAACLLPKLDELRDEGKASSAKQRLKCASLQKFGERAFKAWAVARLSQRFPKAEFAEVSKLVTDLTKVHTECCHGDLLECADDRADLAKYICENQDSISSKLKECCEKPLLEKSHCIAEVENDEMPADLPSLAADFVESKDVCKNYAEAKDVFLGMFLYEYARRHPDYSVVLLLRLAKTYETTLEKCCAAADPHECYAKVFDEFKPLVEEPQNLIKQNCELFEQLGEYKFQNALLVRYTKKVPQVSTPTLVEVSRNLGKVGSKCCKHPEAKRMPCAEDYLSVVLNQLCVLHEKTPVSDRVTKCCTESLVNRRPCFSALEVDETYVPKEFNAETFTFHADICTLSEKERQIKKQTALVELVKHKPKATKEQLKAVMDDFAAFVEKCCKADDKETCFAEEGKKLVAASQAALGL
Protocol: 100 mM Tris-HCl buffer pH 8.0 containing 2 mg/ml of Triton X-100, 2 mM 2Na-EDTA (disodium ethylenediaminetetraacetate) and 10 mM MgCl2.
40 mg of ATP disodium salt, 50 mg of potassium phosphoenolpyruvate, 20 U of myokinase (available from Boehringer Mannheim (B.M.), grade I), 15 U of pyruvate kinase (available from B.M., grade II) and 15 U of lactate dehydrogenase (available from B.M., derived from rabbit muscle) are dissolved in 1 ml of the above-mentioned buffer.
In 1 ml of the above buffer, 3 mg of NADH disodium salt is dissolved.
An ACS solution in 50% glycerine in a concentration of about 4 U/ml as prepared in Preparation 1 which is diluted with three volumes of water is used.
Aqueous 0.5 mM potassium oleate solution is used. […] The content of the microcell was then preheated at 37° C. in a spectrophotometer (Shimadzu, model UV-200) equipped with a thermostated cell holder. Thereafter 20 μl of the CoA solution was added to initiate the reaction and decrease in optical density (OD) at 340 nm was recorded with the elapse of time. From the data, the value of maximum ΔOD/min was calculated.

[2] = biological target: T2, FFA-albumin linkage in human serum (Homo sapiens, UniProt P02768); experiment: Example 2: enzymatic assay of FFA in human serum samples (Procedure A) with dissociating agent
T2 construct: were replaced by human serum samples; from tissue; host or cells: human serum
T2 sequence (P02768 25-609): as above
Protocol: The reaction was continued for 15 minutes at 37° C., and the OD340 values were read just before the addition of CoA solution and 15 minutes later when the reaction was almost complete and decrease in OD ceased. As a sample blank distilled water was substituted for the ACS solution in the reaction systems and the reaction and measurement of OD were carried out in the same way.
The concentration of FFA in a serum sample was calculated by the following equation: [formula] where:
A=0D340 of the reaction system just before the addition of CoA solution;
B=OD340 of the reaction system after 15 minutes
C=OD340 just before the addition of CoA solution in the blank run, and
D=OD340 after 15 minutes in the blank run.

[3] = biological target: T1, FFA-albumin linkage (human serum albumin); experiment: Example 3: ACS/ACO colorimetric FFA assay (Procedure B) on potassium oleate plus human serum albumin; conditions: 0.5% in assay system; sample 280 μM potassium oleate + 2.5% human serum albumin; without agent -0.016
Protocol: 100 mM Tris-HCl buffer pH 8.0 containing 3.2 mM Triton X-100, 2 mM disodium ethylenediaminetetraacetate and a dissociating agent such as a benzenesulfonate.
100 mM Tris-HCl buffer pH 8.0 containing 60 mM magnesium chloride.
A solution of 80 mg of ATP disodium salt and 20 U of myokinase dissolved in 40 ml of Buffer (1).
Prepared by adding 5 ml of the ACS solution in 50% glycerine with a concentration of about 4 U/ml as prepared in Preparation 1 to a solution of 25 mg of CoA in 5 ml of Buffer (2).
A suspension of ACO in 50% saturated ammonium sulfate having a concentration of about 50 U/ml and prepared as described in Preparation 2. […]
A mixture of 100 μl of a sample containing 280 μM potassium oleate and 2.5% human serum albumin, 400 μl of Enzyme Solution (1) and 100 μl of Enzyme Solution (2) was kept at 37° C. for 15 minutes. […] The reaction solution was placed into a cell having a thickness of 10 mm and the value (A) for optical density at 535 nm was measured. As a control, the sample was replaced by the same volume of water and the optical density value (B) was measured in the same way.
An aqueous potassium oleate solution which is free from albumin was separately prepared as a standard solution. This solution was substituted for the sample and the optical density value (C) was also measured in the same way. […]

[4] = human serum C, solution of dissociating agent 20 mM, extraction method 560
[5] = dissociating agent 25 mM, control with albumin 0.019, without albumin 0.076

maximum ΔOD340/min ([1]; dissociating agent 2.5 mM): 0.041 ΔOD340/min | maximum ΔOD340/min ([1]; dissociating agent 10 mM): 0.048 ΔOD340/min | FFA assayed [2, 4]: 575 µM
Structure (SMILES): O=C(O)CCCCCCCCCCCCC(=O)O [Dipotassium 1,12-dodecamethylenedicarboxylate]

Structure (SMILES): CCCCCc1ccc(S(=O)(=O)[O-])cc1.[Na+] [Sodium p-n-amylbenzenesulfonate]
maximum ΔOD340/min ([1]; dissociating agent 50 mM): 0.030 ΔOD340/min

Structure (SMILES): Cc1ccc(S(=O)(=O)O)cc1 [Sodium p-toluenesulfonate]
maximum ΔOD340/min ([1]; dissociating agent 100 mM): 0.030 ΔOD340/min | FFA assayed ([2]; human serum C, solution of dissociating agent 1000 mM, extraction method 560): 585 µM | ΔOD535 [3]: 0.078

Structure (SMILES): O=C(O)CCCCCCCCC(=O)O [Potassium salt of 1,8-octamethylenedicarboxylic acid]
maximum ΔOD340/min [1, 5]: 0.026 ΔOD340/min

maximum ΔOD340/min ([1]; dissociating agent 5 mM): 0.028 ΔOD340/min | maximum ΔOD340/min ([1]; dissociating agent 10 mM): 0.031 ΔOD340/min | maximum ΔOD340/min ([1]; dissociating agent 20 mM): 0.034 ΔOD340/min | FFA assayed ([2]; human serum B, solution of dissociating agent 50 mM, extraction method 370): 335 µM
Structure (SMILES): O=C(O)CCCCCCCCCCC(=O)O [Potassium salt of decamethylenedicarboxylic acid]

Structure (SMILES): O=C(O)CCCCC(=O)O [Potassium salt of tetramethylenedicarboxylic acid, reference compound]
maximum ΔOD340/min [1, 5]: 0.015 ΔOD340/min

maximum ΔOD340/min ([1]; dissociating agent 5 mM): 0.035 ΔOD340/min | maximum ΔOD340/min ([1]; dissociating agent 10 mM): 0.040 ΔOD340/min | maximum ΔOD340/min ([1]; dissociating agent 20 mM): 0.045 ΔOD340/min | FFA assayed ([2]; human serum A, solution of dissociating agent 20 mM, extraction method 1475): 1500 µM | FFA assayed ([2]; human serum B, solution of dissociating agent 20 mM, extraction method 370): 340 µM | FFA assayed [2, 4]: 570 µM
Structure (SMILES): O=C(O)CCCCCCCCCCCC(=O)O [Potassium salt of 1,11-undecamethylenedicarboxylic acid]

maximum ΔOD340/min ([1]; dissociating agent 2.5 mM): 0.045 ΔOD340/min | FFA assayed ([2]; human serum B, solution of dissociating agent 10 mM, extraction method 370): 340 µM | FFA assayed ([2]; human serum C, solution of dissociating agent 10 mM, extraction method 560): 570 µM
Structure (SMILES): O=C(O)CCCCCCCCCCCCCCC(=O)O [Dipotassium 1,14-tetradecamethylenedicarboxylate]

maximum ΔOD340/min ([1]; dissociating agent 2.5 mM): 0.032 ΔOD340/min
Structure (SMILES): O=C(O)CCCCCCCCCCCCCCCCC(=O)O [Dipotassium 1,16-hexadecamethylenedicarboxylate]

maximum ΔOD340/min [1, 5]: 0.015 ΔOD340/min
Structure (SMILES): O=C(O)CCCCCCC(=O)O [Potassium salt of hexamethylenedicarboxylic acid, reference compound]
